US20250326753A1, “DUAL CXCR4-BTK INHIBITORS” (X4 Pharmaceuticals, Inc., priority 2022, published 2025)
Where two headings read alike, the source gives them in different places.

Key:
PAK2 = target: T1, PAK2 (Homo sapiens, UniProt Q13177); experiment: PanQinase kinase panel: PAK2; type: biochemical; conditions: read-out: INHIBITORY EFFECT @ 1 uM: PAK2
T1 construct: purchased Reaction Biology Europe GmbH
Experimental: (§1) Screening procedures were performed in accordance with the company's on-line protocol [accessed on-line Mar.
(§2) For each kinase, the median value of the cpm of three wells was defined as “low control” (n=3). This value reflects unspecific binding of radioactivity to the plate in the absence of a protein kinase but in the presence of the substrate. Additionally, for each kinase the median value of the cpm of three other wells was taken as the “high control,” i.e. full activity in the absence of any inhibitor (n=3). The difference between high and low control of each enzyme was taken as 100% activity.
(§3) As part of the data evaluation the low control of each kinase was subtracted from the high control value as well as from their corresponding “compound values”. The residual activity (in %) for each compound well was calculated by using the following formula: Res. Activity (%)=100×[(signal of compound−low control)/(high control−low control)].

PDGFRbeta = target: T2, PDGFRbeta (Homo sapiens, UniProt P09619); experiment: PanQinase kinase panel: PDGFRbeta; type: biochemical; conditions: read-out: INHIBITORY EFFECT @ 1 uM: PDGFRbeta
T2 construct: purchased Reaction Biology Europe GmbH
Experimental: as §1, §2, §3

CXCR4 = CXCR4 (Homo sapiens, UniProt P61073); experiment: Chemokine (CXCL12-AF647) binding inhibition assay, Jurkat cells expressing CXCR4; conditions: CXCL12-AF647 25 ng/ml, read-out: IC50 CXCL-12 binding Jurkat
Experimental: Jurkat cells expressing CXCR4 were washed once with assay buffer (Hanks' balanced salt solution with 20 mM HEPES buffer and 0.2% bovine serum albumin, pH 7.4) and then incubated for 15 min at room temperature with the test compounds diluted in assay buffer at dose-dependent concentrations. Subsequently, CXCL12-AF647 (25 ng/ml) was added to the compound-incubated cells. The cells were incubated for 30 min at room temperature. Thereafter, the cells were washed twice in assay buffer, fixed in 1% paraformaldehyde in PBS, and analyzed on the FL4 channel of a FACSCalibur flow cytometer equipped with a 635-nm red diode laser (Becton Dickinson, San Jose, CA, USA).
The percentages of inhibition of CXCL12-AF647 binding were calculated according to the formula: [1−((MFI−MFINC)/(MFIPC−MFINC))]×100 where MFI is the mean fluorescence intensity of the cells incubated with CXCL 12-AF647 in the presence of the inhibitor, MFINC is the mean fluorescence intensity measured in the negative control (i.e., autofluorescence of unlabeled cells), and MFIPC is the mean fluorescence intensity of the positive control (i.e., cells exposed to CXCL12-AF647 alone).

MUSK = target: T3, MUSK (Homo sapiens, UniProt O15146); experiment: PanQinase kinase panel: MUSK; type: biochemical
T3 construct: purchased Reaction Biology Europe GmbH
T3 sequence (O15146 24-869): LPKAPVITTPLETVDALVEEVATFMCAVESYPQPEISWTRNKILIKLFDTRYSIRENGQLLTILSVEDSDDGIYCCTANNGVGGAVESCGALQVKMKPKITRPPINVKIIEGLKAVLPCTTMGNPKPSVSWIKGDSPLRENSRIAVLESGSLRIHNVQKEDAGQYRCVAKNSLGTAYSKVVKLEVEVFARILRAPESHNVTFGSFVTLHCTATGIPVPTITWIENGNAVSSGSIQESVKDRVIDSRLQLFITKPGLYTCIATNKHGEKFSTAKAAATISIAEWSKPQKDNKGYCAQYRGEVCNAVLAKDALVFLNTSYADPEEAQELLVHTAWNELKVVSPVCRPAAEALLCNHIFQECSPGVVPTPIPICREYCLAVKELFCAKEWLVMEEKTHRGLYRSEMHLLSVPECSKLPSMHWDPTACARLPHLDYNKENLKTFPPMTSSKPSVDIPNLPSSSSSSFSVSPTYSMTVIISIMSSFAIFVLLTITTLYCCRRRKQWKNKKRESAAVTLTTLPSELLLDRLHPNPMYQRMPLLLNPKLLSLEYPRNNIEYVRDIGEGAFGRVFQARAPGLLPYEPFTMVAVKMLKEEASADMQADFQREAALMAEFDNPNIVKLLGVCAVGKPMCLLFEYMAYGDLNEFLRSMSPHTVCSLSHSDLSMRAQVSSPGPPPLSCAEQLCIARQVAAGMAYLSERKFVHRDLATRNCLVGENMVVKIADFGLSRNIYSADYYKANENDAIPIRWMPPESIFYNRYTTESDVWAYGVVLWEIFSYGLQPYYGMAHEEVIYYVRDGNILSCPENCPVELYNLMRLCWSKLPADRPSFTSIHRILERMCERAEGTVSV
Experimental: as §1, §2, §3

CLK2 = target: T4, CLK2 (Homo sapiens, UniProt P49760); experiment: PanQinase kinase panel: CLK2; type: biochemical
T4 construct: purchased Reaction Biology Europe GmbH
Experimental: as §1, §2, §3

[1] = target: T5, BTK (Bruton tyrosine kinase) (Homo sapiens, UniProt Q06187); experiment: BTK screening assay (33PanQinase Activity Assay, radiometric); type: biochemical; conditions: Inhibition of BTK, radiometric 33PanQinase Activity Assay, 3 μM ATP, 10 concentrations in singlicate, top 10 μM; read-out: 33PanQinase ® Radiometric IC50
T5 construct: GST or His (the text leaves open which); purchased Reaction Biology Europe GmbH Lot 012,11; host or cells: Sf9 insect cells or E. coli (not resolved)

[2] = read-out: INHIBITORY EFFECT @ 1 uM: MUSK
[3] = read-out: INHIBITORY EFFECT @ 1 uM: CLK2

T5 sequence (Q06187 whole entry): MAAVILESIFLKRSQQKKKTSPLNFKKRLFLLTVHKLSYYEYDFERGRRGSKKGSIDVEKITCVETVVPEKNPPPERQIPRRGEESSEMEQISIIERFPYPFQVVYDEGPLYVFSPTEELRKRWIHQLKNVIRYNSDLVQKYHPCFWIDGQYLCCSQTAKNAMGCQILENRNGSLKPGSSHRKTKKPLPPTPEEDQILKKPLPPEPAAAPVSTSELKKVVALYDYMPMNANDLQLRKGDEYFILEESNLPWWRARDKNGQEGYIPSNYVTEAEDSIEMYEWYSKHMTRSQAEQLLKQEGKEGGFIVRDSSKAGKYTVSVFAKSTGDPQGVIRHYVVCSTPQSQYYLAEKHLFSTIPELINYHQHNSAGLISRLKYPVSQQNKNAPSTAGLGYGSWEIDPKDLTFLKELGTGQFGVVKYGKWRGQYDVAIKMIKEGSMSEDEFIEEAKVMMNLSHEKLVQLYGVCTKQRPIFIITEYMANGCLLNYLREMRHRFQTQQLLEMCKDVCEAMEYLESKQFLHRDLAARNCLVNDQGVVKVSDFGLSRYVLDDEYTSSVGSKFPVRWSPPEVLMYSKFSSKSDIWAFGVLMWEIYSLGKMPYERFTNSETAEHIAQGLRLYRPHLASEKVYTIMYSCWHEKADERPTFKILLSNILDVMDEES
T1 sequence (Q13177 whole entry): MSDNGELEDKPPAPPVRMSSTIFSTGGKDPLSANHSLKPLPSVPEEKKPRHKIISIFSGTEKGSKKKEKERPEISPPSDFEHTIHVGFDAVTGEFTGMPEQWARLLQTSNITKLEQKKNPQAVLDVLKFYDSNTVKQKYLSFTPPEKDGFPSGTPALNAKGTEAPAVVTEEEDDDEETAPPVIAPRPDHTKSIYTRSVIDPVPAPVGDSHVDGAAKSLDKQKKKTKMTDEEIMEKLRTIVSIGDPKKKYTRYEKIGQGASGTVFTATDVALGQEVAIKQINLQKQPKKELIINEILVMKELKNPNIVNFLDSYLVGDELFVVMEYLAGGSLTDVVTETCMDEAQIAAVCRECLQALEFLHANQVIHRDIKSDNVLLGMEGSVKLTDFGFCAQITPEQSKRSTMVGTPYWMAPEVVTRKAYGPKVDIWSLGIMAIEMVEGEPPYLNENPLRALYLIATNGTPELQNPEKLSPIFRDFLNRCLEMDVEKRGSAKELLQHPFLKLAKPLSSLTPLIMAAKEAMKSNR
CXCR4, sequence (P61073 whole entry): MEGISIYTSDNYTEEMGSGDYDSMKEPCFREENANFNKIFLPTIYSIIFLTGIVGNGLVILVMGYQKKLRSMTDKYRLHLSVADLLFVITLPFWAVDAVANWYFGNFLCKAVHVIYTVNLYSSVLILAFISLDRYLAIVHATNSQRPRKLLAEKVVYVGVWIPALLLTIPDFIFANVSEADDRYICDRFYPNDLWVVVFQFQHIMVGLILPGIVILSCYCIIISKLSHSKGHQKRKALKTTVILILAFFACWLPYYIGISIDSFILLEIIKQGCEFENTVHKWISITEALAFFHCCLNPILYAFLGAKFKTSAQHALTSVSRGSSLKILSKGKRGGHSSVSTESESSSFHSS
T4 sequence (P49760 whole entry): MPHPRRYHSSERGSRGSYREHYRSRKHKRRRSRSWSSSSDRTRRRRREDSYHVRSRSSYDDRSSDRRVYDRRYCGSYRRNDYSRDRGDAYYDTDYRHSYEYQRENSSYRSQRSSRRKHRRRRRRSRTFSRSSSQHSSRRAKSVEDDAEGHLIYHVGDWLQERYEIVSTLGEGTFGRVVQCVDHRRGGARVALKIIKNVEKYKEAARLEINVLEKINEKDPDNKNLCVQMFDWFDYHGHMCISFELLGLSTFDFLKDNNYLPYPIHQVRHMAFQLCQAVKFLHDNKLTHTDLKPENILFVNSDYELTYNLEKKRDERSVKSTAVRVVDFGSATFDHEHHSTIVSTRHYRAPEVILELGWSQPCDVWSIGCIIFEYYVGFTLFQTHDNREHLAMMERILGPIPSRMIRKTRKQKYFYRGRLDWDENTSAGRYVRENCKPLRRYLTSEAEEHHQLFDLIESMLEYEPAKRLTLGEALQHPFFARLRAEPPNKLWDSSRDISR
T2 sequence (P09619 33-1106): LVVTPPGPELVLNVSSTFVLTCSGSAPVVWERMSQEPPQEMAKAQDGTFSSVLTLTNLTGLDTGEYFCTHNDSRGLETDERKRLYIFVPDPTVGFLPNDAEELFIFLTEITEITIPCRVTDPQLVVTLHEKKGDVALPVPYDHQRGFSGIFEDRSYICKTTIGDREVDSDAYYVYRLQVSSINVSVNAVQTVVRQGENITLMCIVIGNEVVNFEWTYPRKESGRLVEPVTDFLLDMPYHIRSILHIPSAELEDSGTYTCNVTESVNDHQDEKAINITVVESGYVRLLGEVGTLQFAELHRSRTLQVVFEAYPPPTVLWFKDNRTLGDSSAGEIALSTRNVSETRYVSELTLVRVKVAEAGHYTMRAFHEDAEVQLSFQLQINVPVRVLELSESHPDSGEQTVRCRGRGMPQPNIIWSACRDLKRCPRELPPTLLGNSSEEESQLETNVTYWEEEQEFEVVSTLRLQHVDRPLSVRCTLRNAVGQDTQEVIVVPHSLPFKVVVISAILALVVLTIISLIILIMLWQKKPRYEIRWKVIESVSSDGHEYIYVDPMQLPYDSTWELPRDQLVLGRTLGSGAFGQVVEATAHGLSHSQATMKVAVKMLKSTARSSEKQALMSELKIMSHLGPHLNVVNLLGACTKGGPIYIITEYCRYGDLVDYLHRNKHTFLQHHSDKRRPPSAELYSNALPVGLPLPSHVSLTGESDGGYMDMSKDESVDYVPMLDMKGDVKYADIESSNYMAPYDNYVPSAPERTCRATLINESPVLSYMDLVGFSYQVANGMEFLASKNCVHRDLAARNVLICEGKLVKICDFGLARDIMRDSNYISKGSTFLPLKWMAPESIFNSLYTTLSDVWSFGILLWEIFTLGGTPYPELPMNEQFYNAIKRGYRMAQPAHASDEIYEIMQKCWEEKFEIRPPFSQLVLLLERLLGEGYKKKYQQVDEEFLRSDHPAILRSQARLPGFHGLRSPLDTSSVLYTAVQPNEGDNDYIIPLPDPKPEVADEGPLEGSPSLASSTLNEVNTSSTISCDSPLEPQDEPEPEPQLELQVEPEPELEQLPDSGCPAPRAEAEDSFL

O=C(c1ccc(Oc2ccccc2)cc1Cl)c1c[nH]c2ncnc(N[C@@H]3CC[C@@H](CO)OC3)c12 [ARQ-531, (2-chloro-4-phenoxyphenyl) (4-(((3R,6S)-6-(hydroxymethyl)tetrahydro-2H-pyran-3-yl)amino)-7H-pyrrolo[2,3-d]pyrimidin-5-yl) methanone]
inhibition at 1 µM (PAK2): 70 to 89%
inhibition at 1 µM (PDGFRbeta): < 50%

Cc1cccnc1[C@H]1CCC[C@@H](c2ncccc2C)N1CCN1CCN(C(=O)c2ccc(-c3cc4c(-c5cccc(NC(=O)c6ccccc6)c5C)ncnc4[nH]3)cc2)CC1 [Compound I-10, N-(3-(6-(4-(4-(2-((2R,6S)-2,6-bis(3-methylpyridin-2-yl)piperidin-1-yl)ethyl)piperazine-1-carbonyl)phenyl)-7H-pyrrolo[2,3-d]pyrimidin-4-yl)-2-methylphenyl)benzamide]
IC50 (CXCR4): 1 to 100 nM
inhibition at 1 µM (MUSK; at 1 μM, read-out: inhibition of MUSK): 50 to 89%
inhibition at 1 µM (MUSK; [2]): 70 to 89%
inhibition at 1 µM (CLK2; at 1 μM, read-out: inhibition of CLK2): 50 to 89%
inhibition at 1 µM (CLK2; [3]): 50 to 69%
inhibition at 1 µM (PAK2): < 50%
inhibition at 1 µM (PDGFRbeta): < 50%
IC50 [1]: 1 to 100 nM

Cc1cc(-c2ccnc(Nc3cnn(CCN4[C@@H](c5ncccc5C)CCC[C@H]4c4ncccc4C)c3)n2)ccc1CNC(=O)N1CC(OC(C)C)C1 [Compound I-11]
IC50 (CXCR4): 1 to 100 nM
IC50 [1]: 1 to 100 nM

Cc1cccnc1[C@H]1CCC[C@@H](c2ncccc2C)N1CCCCNC(=O)[C@@H]1CC[C@@H](Nc2ncnc3[nH]cc(C(=O)c4ccc(Oc5ccccc5)cc4Cl)c23)CO1 [Compound I-16]
IC50 (CXCR4): 1 to 100 nM
IC50 [1]: 1 to 100 nM

Cc1cccnc1[C@H]1CCC[C@@H](c2ncccc2C)N1CCCCNC(=O)OC[C@@H]1CC[C@@H](Nc2ncnc3[nH]cc(C(=O)c4ccc(Oc5ccccc5)cc4Cl)c23)CO1 [Compound I-18]
IC50 (CXCR4): 100 to 1000 nM
IC50 [1]: 1 to 100 nM

COc1ccc(F)cc1C(=O)NCc1ccc(-c2nn([C@@H](C)C(F)(F)F)c(N)c2C(N)=O)cc1 [LOXO-305, pirtobrutinib]
inhibition at 1 µM (MUSK; [2]): < 50%
inhibition at 1 µM (CLK2; [3]): < 50%
inhibition at 1 µM (PAK2): < 50%
inhibition at 1 µM (PDGFRbeta): < 50%

C=CC(=O)N1CCC([C@@H]2CCNc3c(C(N)=O)c(-c4ccc(Oc5ccccc5)cc4)nn32)CC1 [Zanubrutinib, (7S)-2-(4-phenoxyphenyl)-7-(1-prop-2-enoylpiperidin-4-yl)-4,5,6,7-tetrahydropyrazolo[1,5-a]pyrimidine-3-carboxamide]
inhibition at 1 µM (MUSK; [2]): < 50%
inhibition at 1 µM (CLK2; [3]): < 50%
inhibition at 1 µM (PAK2): < 50%
inhibition at 1 µM (PDGFRbeta): < 50%
